Values quoted from earlier work, collected in US20060154981A1, “Method of reducing intraocular pressure and treating glaucoma” (Alcon, Inc., priority 2005, published 2006).

Experiments:
neutrophils = details: compared with lipoxin A4
IOP = details: rabbits

In the case of `CCCCC[C@H](O)[C@H](O)CO` [compound 2], the “Inhibition of LTB4-induced chemotaxis of neutrophils” value (neutrophils) is given as “inhibit LTB4-induced chemotaxis of neutrophils as potently as lipoxin A4”.

For `CCCCC[C@H](O)/C=C/C=C\C=C\C=C\[C@@H](O)[C@@H](O)CCCC(=O)OC` [methyl ester of lipoxin A4], the IOP lowering (IOP) is given as “reported to lower IOP in rabbits”.
